According to patent publication US4945098A, “Novel propane-1,3-diol derivatives and use” (Leo Pharmaceutical Products Ltd. A/S (Lovens Kemiske Fabrik, priority 1985, dated 1990):

Assay: hygroscopicity
Assay type: physicochemical
Details: crystals from acetone/ether, monohydrate

C=C(COC(=O)CCCCCC[n+]1ccsc1)COC(=O)NCCCCCCCCCCCCCCCCCC [Example 46, 1-Octadecylaminocarbonyloxy-3-[7-(3-thiazolio)heptanoyloxy]-2-methylenepropane bromide]
hygroscopicity: Hygroscopic
